Our source for the IC50 values is the Kinase Knowledgebase extract (Sharma et al. 2016).

Assay [1] addresses CDK2 (human) (UniProt P24941). As to the kind of experiment: Enzyme Assay.
The target of assay [2] is CDK2 (human) (UniProt P24941). As to the kind of experiment: Cell-Based Assay.

Each structure is given as a SMILES string.

As a reminder, the IC50 is the concentration needed to halve the response being measured. Low readings indicate greater potency in that assay, high ones weaker potency in that assay. At CDK2 (human) [1], `O=C1Nc2ccc(F)c3c(S(=O)(=O)CCO)cc(-c4ccc[nH]4)c1c23` had an IC50 of no more than 10 µM. In turn, `Cc1cc(-c2ccc[nH]2)c2c3c(ccc(F)c13)NC2=O` registered an IC50 against CDK2 (human) [1] of no more than 10 µM. `COc1cc(-c2ccc[nH]2)c2c3c(ccc(F)c13)NC2=O` came in with an IC50 against CDK2 (human) [1] of no more than 10 µM. In the case of `Cc1c[nH]c(-c2cc(SCCN)c3c(F)ccc4c3c2C(=O)N4)c1C`, the IC50 on CDK2 (human) [1] was no more than 10 µM.

For `O=C1Nc2ccc(F)c3c(N4CCOCC4)cc(-c4ccc[nH]4)c1c23`, at CDK2 (human) [1], the IC50 is no more than 10 µM. Compound `O=C1Nc2ccc(F)c3c2C1=C(c1ccc[nH]1)CC3` displayed an IC50 on CDK2 (human) [1] of no more than 10 µM. On CDK2 (human) [1], `NCCSc1cc(-c2ccc[nH]2)c2c3c(ccc(F)c13)NC2=O` showed a concentration for half-maximal inhibition (IC50) of no more than 10 µM. `O=C1Nc2ccc(F)c3c(OCCO)cc(-c4ccc[nH]4)c1c23`: the IC50 against CDK2 (human) [1] was no more than 10 µM. Consider `O=C1Nc2ccc(F)c3c(NCCO)cc(-c4ccc[nH]4)c1c23`, for which, at CDK2 (human) [1], the concentration for half-maximal inhibition (IC50) is no more than 10 µM. Consider `O=C1Nc2ccc(F)c3c([S+]([O-])CCO)cc(-c4ccc[nH]4)c1c23` (stereo not given), for which the 50% inhibitory concentration (IC50) against CDK2 (human) [2] (rko) was no more than 10 µM. In turn, `O=C1Nc2ccc(F)c3c(OCCCO)cc(-c4ccc[nH]4)c1c23` registered an IC50 at CDK2 (human) [1] of no more than 10 µM. For `NCCOc1cc(-c2ccc[nH]2)c2c3c(ccc(F)c13)NC2=O`, the IC50 at CDK2 (human) [1] was no more than 10 µM. In the case of `O=C1Nc2ccc(F)c3c(N4CCCC(O)C4)cc(-c4ccc[nH]4)c1c23` (stereo not given), the IC50 against CDK2 (human) [2] (mda-mb-435), against CDK2 (human) [2] (rko) and at CDK2 (human) [1] was no more than 10 µM throughout.

Regarding `O=C1Nc2ccc(F)c3c(N4CCCC(CO)C4)cc(-c4ccc[nH]4)c1c23` (stereo not given), the IC50 against CDK2 (human) [2] (mda-mb-435), against CDK2 (human) [2] (rko) and on CDK2 (human) [1] was no more than 10 µM in each case. On CDK2 (human) [1], `O=C1Nc2ccc(F)c3c(N4CCC(O)CC4)cc(-c4ccc[nH]4)c1c23` gave an IC50 of no more than 10 µM.

At CDK2 (human) [1], `O=C1Nc2ccc(F)c3c(SCCO)cc(-c4ccc[nH]4)c1c23` registered an IC50 of no more than 10 µM. On CDK2 (human) [1], `CCC(C)c1cc(-c2ccc[nH]2)c2c3c(ccc(F)c13)NC2=O` (stereo not given) yielded a half-inhibitory concentration (IC50) of no more than 10 µM. Turning to `NCC[S+]([O-])c1cc(-c2ccc[nH]2)c2c3c(ccc(F)c13)NC2=O` (stereo not given), the IC50 against CDK2 (human) [2] (mda-mb-435), against CDK2 (human) [2] (rko) and against CDK2 (human) [1] was no more than 10 µM in each case.

In turn, `CCc1cc(-c2ccc[nH]2)c2c3c(ccc(F)c13)NC2=O` gave an IC50 against CDK2 (human) [1] of no more than 10 µM. Take `O=C1Nc2ccc(F)c3c(N4CC[C@@H](O)C4)cc(-c4ccc[nH]4)c1c23`: the IC50 against CDK2 (human) [1] is no more than 10 µM. With `NCCS(=O)(=O)c1cc(-c2ccc[nH]2)c2c3c(ccc(F)c13)NC2=O`, at CDK2 (human) [1], the IC50 was no more than 10 µM.

Take `NCCCNc1cc(-c2ccc[nH]2)c2c3c(ccc(F)c13)NC2=O`: on CDK2 (human) [1], the IC50 is no more than 10 µM. For the compound `CC(C)(N)CNc1cc(-c2ccc[nH]2)c2c3c(ccc(F)c13)NC2=O`, the IC50 against CDK2 (human) [1] was no more than 10 µM. Still for that read-out and setting: the value for `O=C1Nc2ccc(F)c3c(N4CCNC4=O)cc(-c4ccc[nH]4)c1c23` was no more than 10 µM. Compound `O=C1Nc2ccc(F)c3c(N4CCNCC4)cc(-c4ccc[nH]4)c1c23` registered an IC50 against CDK2 (human) [1] of no more than 10 µM.

On CDK2 (human) [1], `CC(=O)NCCNc1cc(-c2ccc[nH]2)c2c3c(ccc(F)c13)NC2=O` showed an IC50 of no more than 10 µM. For the compound `CCN(CC)CCNc1cc(-c2ccc[nH]2)c2c3c(ccc(F)c13)NC2=O`, the IC50 at CDK2 (human) [1] is no more than 10 µM. Turning to `CCOc1cc(-c2ccc[nH]2)c2c3c(ccc(F)c13)NC2=O`, the IC50 against CDK2 (human) [1] was no more than 10 µM. `O=C1Nc2ccc(F)c3ccc(-c4ccc[nH]4)c1c23` came in with an IC50 against CDK2 (human) [1] of no more than 10 µM.
